Experimental findings from patent US7728037B2, “Alpha-ketoglutarates of active ingredients and compositions containing same” (Sigma-Tau Industrie Farmaceutiche Riunite S.p.A., priority 2001, dated 2010) are described below.

The assay relates to rabbit heart papillary muscle subjected to hypoxia. The assay can be described thus: Metabolic tests: ATP concentrations in rabbit heart papillary muscle subjected to hypoxia after oral treatment. Type of assay: in vivo. The settings on record: 1 g/kg by mouth or equimolecular doses, three consecutive days; tissue held anoxic for 90 minutes; untreated controls 1.70±0.68 to 0.46±0.071. The text has this: After three consecutive days of treatment, sections of papillary muscle were isolated from the rabbit hearts and were perfused in a thermostatized bath with a saturated solution of 100% O2.

Consider L-carnitine alpha-ketoglutarate, for which the ATP concentrations in papillary muscle after hypoxia came out at 1.48 ± 0.72 µmol/g tissue.

Take `C[N+](C)(C)C[C@H](O)CC(=O)[O-]` [L-carnitine]: the ATP concentrations in papillary muscle after hypoxia was determined as 0.59 ± 0.31 µmol/g tissue.
